Laboratory results from the supplement of paper PMC6723410.

These compounds were tested on GUMC-403 (assay: viability at highest tested concentration (max response) relative to DMSO (% of DMSO control); higher = less cytotoxic). Details: library / dose series: MIPE library, 11-point 1:3 dilution; top concentration 23 µM; 48 h.
In short: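 This value is viability at the highest tested concentration relative to vehicle control. GUMC-403 papilloma cells from a patient, grown by conditional reprogramming, were plated at 700/well in 1536-well plates and given 23 nL of compound by pin tool for 48 h. CellTiter-Glo luminescence on a ViewLux was normalised with vehicle wells at 100% and empty wells at 0%.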

Structure (SMILES)	viability
[O-]C(=O)C/1=N/C(=O)NC(=O)N1	90.2

Same assay, conditions: library / dose series: MIPE library, 11-point 1:3 dilution; top concentration 46.1 µM; 48 h

Structure (SMILES)	viability
C[C@]\1(CCS\C(=N1)N)C2=CC(=C(F)C=C2F)C3=CN=CN=C3	80.2
CC(C)(C)C1=CC(=C(NC(=O)C/2=C/NC3=C(C=CC=C3)C2=O)C=C1O)C(C)(C)C	114
CN(C)NC(=O)CCC(=O)O	101
C[C@H](NC(=O)Cc1cc(F)cc(F)c1)C(=O)N[C@@H]1C(=O)N(C)c2ccccc2-c2ccccc21	108
C[N+](C)([O-])CCNc1ccc(NCC[N+](C)(C)[O-])c2c1C(=O)c1c(O)ccc(O)c1C2=O	104
CC(C)c1onc(-c2c(Cl)cccc2Cl)c1COc1ccc(/C=C/c2cccc(C(=O)O)c2)c(Cl)c1	123
CC(=O)N1CCN(c2ccc(OCc3nn(C)c(C)c3-c3cccc4c(CCCOc5cc(C)c(Cl)c(C)c5)c(C(=O)O)n(Cc5cccnc5)c34)cc2)CC1	137
C[S+](=O)([O-])N(Cc1ccco1)CC(O)Cn1c2ccccc2c2ccccc21 (centres undefined)	90.4
N#CC[C@H](C1CCCC1)n1cc(-c2ncnc3[nH]ccc23)cn1	117
COc1cc(NC(=O)c2ccc(-c3ccc(Cl)cc3)o2)cc(OC)c1	39.9
C=CC(=O)Nc1cc(NC(=O)c2ccc(C)c(NC(=O)c3ccno3)c2)cc(C(F)(F)F)c1	106
COc1cc(C(=O)NC2CCN(C)CC2)ccc1Nc1ncc2c(n1)N(C1CCCC1)CCC(=O)N2C(C)C	93.5
CNC(=O)c1ccc2c(c1)NC(=O)/C2=C(\Nc1cccc(CN(C)C)c1)c1ccccc1	107
c1ccc(-c2oc3ncnc(NC[C@@H]4CCCO4)c3c2-c2ccccc2)cc1	100
N=C(CCSCc1csc(N=C(N)N)n1)N[S+](N)(=O)[O-]	124
CC(C)(C)[C@]1(O)C[C@@H]2OC(=O)C[C@@]23C(=O)O[C@@H]2OC(=O)[C@H](O)C213 (some centres undefined)	99.4
CCc1cccc2c3c([nH]c12)C(CC)(CC(=O)O)OCC3 (centres undefined)	132
C=CC(=O)Nc1ccc2ncnc(Nc3ccc(OCc4cccc(F)c4)c(Cl)c3)c2c1	26.3
N#CC1(c2cccc(C(=O)Nc3cc(Oc4ccc5nc(NC(=O)C6CC6)sc5n4)ccc3F)c2Cl)CC1	71.8
CN1C(=O)COc2c(C(=O)NC3CN4CCC3CC4)cc(Cl)cc21 (centres undefined)	107
C[C@]12Cc3cn[nH]c3C[C@@H]1CC[C@@H]1[C@@H]2CC[C@@]2(C)[C@H]1CC[C@]2(C)O	108

Structure (SMILES)	viability
CCc1ccc(C(=O)Nc2cc(CN3CCN(C)CC3)cc(C(F)(F)F)c2)cc1C#Cc1cnc2ccnn2c1	119
CCCCCCCCCCCCCCCCCCCCCCO	103
N[C@@H](Cc1ccc(N(CCCl)CCCl)cc1)C(=O)O	143
COC1=CC=C(C=C1)C2CC(=N/N2C3=CC=C(C=C3)[S+](N)([O-])=O)\C4=CC=CC=C4 (centres undefined)	137
CCC(=O)NCC[C@@H]1CCc2ccc3c(c21)CCO3	122
CC[C@@H]([C@H](C)O)n1ncn(-c2ccc(N3CCN(c4ccc(OCC5CO[C@@](Cn6cncn6)(c6ccc(F)cc6F)C5)cc4)CC3)cc2)c1=O (some centres undefined)	101
Nc1cccc([S+](=O)([O-])N2CCCN([S+](=O)([O-])c3ccc4c(c3)OCCO4)CC2)c1	87
CCCCc1oc2ccc(NS(C)(=O)=O)cc2c1C(=O)c1ccc(OCCCN(CCCC)CCCC)cc1	126
CC(C)n1c(/C=C/[C@H](O)C[C@H](O)CC(=O)O)c(-c2ccc(F)cc2)c2ccccc21	103
C[C@@H]1C[C@H]2[C@@H]3\C=C(C)/C4=C/C5=C(C[C@]4(C)[C@H]3[C@@H](O)C[C@]2(C)[C@@]1(O)C(=O)COC(C)=O)C=N[N]5C6=CC=CC=C6	107
OC[C@H]1OC(O)C[C@@H](O)[C@@H]1O (some centres undefined)	126
Cc1cccc(C#Cc2ccccc2)n1	101
CCn1c(=O)c2c(nc(/C=C/c3ccc(OC)c(OC)c3)n2C)n(CC)c1=O	134
O=C1CCCC(=O)C1C(=O)c1ccc(C(F)(F)F)cc1[N+](=O)[O-]	104
O=C1\C=C(OC2=C(C=CC=C12)C3=CC=CC4=C3SC5=C4C=CC=C5)\N6CCOCC6	70.9
O=C(O)CCCc1c[nH]c2ccccc12	107
CC(C)CN(C[C@@H](O)[C@H](Cc1ccccc1)NC(=O)O[C@H]1CCOC1)[S+](=O)([O-])c1ccc(N)cc1	109
CCOC(=O)C(C)OC1=CC=CC2=C1\C=C/N(CC(=O)NC3=CC=C4OCCOC4=C3)C2=O (centres undefined)	105
N=C(N)c1ccc(OCCCCCOc2ccc(C(=N)N)cc2)cc1	101
O=C(NCc1ccccc1)c1csc(Nc2ccncn2)n1	110
Cn1ccc2cc3c(cc21)CCN3C(=O)Nc1cccnc1	126

Structure (SMILES)	viability
CN1CCCN(C(=O)c2cccc(-c3ccc(/C=C4/C(=O)Nc5ccc(Cl)cc54)o3)c2)CC1	97.7
C#C[C@]1(O)CC[C@H]2[C@@H]3CCc4cc(O)ccc4[C@H]3CC[C@@]21C	74.3
N=C(N)NC(=N)NCCc1ccccc1	83.9
CN1CCN(c2cccc(Nc3nc4c(-c5ccc([S+](C)(=O)[O-])cc5)cccn4n3)c2)CC1	125
O=C(O)c1cc(/N=N/c2ccc([S+](=O)([O-])Nc3ccccn3)cc2)ccc1O	121
CC1=C(C=CC=C1)N2\C(=N/C3=C(C(=CC=C3)C)C2=O)C[N]4N=CC5=C4N=CN=C5N	85.3
Nc1cccc2c1C(=O)N(C1CCC(=O)NC1=O)C2=O (centres undefined)	107
CN(C)[C@H]\1[C@@H]2C[C@H]3C(=C(O)\[C@]2(O)C(=O)\C(=C1O)C(N)=O)/C(=O)C4=C(O)C=CC=C4[C@@]3(C)O	106
CNc1nccc(-c2cccnc2Oc2cc(C(=O)Nc3cccc(C(F)(F)F)c3)ccc2C)n1	98
OC(=O)C/1=C/C(=O)NC(=O)N1	122
CNC1[C@@H](O)C(O[C@@H]2C(O)C(O[C@H]3O[C@H]([C@@H](C)NC)CC[C@H]3N)[C@@H](N)C[C@H]2N)OC[C@]1(C)O (some centres undefined)	101
CC1=C(C)C2=C(S1)[N]3C(=NN=C3[C@H](CC(=O)OC(C)(C)C)/N=C2/C4=CC=C(Cl)C=C4)C	65
O=C1N\2CCC3=C([NH]C4=C3C=CC=C4)C2=N/C5=CC=CC=C15	109
Cc1cn2cc(C(=O)N(C)CCO)cc(N[C@@H]3CCOc4cccc(C)c43)c2n1	144
OC[C@H]1O[C@H]([C@@H](F)[C@@H]1O)N2\C=C/C(=O)NC2=O	116
C[S+](=O)([O-])c1cccc(CNc2nc(Nc3ccc4c(c3)CCC(=O)N4)ncc2C(F)(F)F)c1	66.8
O=C1N\C=N/C2=C1C=N[NH]2	106
CCN(CCO)CCCOc1ccc2c(Nc3cc(CC(=O)Nc4cccc(F)c4)[nH]n3)ncnc2c1	105
CC(C)c1ccc2c(c1)c(SC(C)(C)C)c(CC(C)(C)C(=O)[O-])n2Cc1ccc(Cl)cc1	115
N#Cc1cc(NC(=O)Nc2nnc(-c3ccncc3)s2)ccc1-c1cn[nH]c1	101

Same assay, conditions: library / dose series: MIPE library, 11-point 1:3 dilution; top concentration 92.2 µM; 48 h

Structure (SMILES)	viability
O=C(O)c1cc(O)c2c(c1)C(=O)c1cccc(O)c1C2=O	110
